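Cultured in 96-well plates, cells were exposed to test compound for 48 hours across five concentrations. GI50: concentration for 50% inhibition of growth.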 The source made the active and inactive calls. No stated cut-off is given here; in the data, active = GI50 up to about 1.1 µM and inactive = higher.
Assays:
Assay in all cases: NCI anticancer screen, dose series, 48 h
M14 = test system: M14
NCI-H460 = test system: NCI-H460
SF-295 = test system: SF-295
PC-3 = test system: PC-3
HOP-62 = test system: HOP-62
SF-539 = test system: SF-539
RXF 393 = test system: RXF 393
MOLT-4 = test system: MOLT-4
OVCAR-5 = test system: OVCAR-5
A498 = test system: A498
HCT-116 = test system: HCT-116
SNB-75 = test system: SNB-75
SW-620 = test system: SW-620
NCI-H522 = test system: NCI-H522
SR = test system: SR
ACHN = test system: ACHN
MDA-N = test system: MDA-N
MCF7 = test system: MCF7
HL-60 = test system: HL-60
SK-OV-3 = test system: SK-OV-3

For `NCCNCC(O)CO` (stereo not given), the GI50 (M14) was > 100 µM (inactive), the GI50 (NCI-H460) was > 100 µM (inactive) and the GI50 (SF-295) was > 100 µM (inactive). For the same molecule, the GI50 (PC-3) was > 100 µM (inactive), the GI50 (HOP-62) was > 100 µM (inactive) and the GI50 (SF-539) was > 100 µM (inactive). For the same molecule, the GI50 (RXF 393) was > 100 µM (inactive), the GI50 (MOLT-4) was > 100 µM (inactive) and the GI50 (OVCAR-5) was > 100 µM (inactive). For the same molecule, the GI50 (A498) was > 100 µM (inactive), the GI50 (HCT-116) was > 100 µM (inactive) and the GI50 (SNB-75) was > 100 µM (inactive). The GI50 (SW-620) was > 100 µM (inactive), the GI50 (NCI-H522) was > 100 µM (inactive) and the GI50 (SR) was > 100 µM (inactive). The GI50 (ACHN) was > 100 µM (inactive), the GI50 (MDA-N) was > 100 µM (inactive) and the GI50 (MCF7) was > 100 µM (inactive). The GI50 (HL-60) was > 100 µM (inactive) and the GI50 (SK-OV-3) was > 100 µM (inactive).

For `COC(=O)CCc1ccc2c(c1)CC1(C2)Cc2ccc3c(c2C1)CCC3` (stereo not given), the GI50 (M14) was 59.2 µM (inactive), the GI50 (NCI-H460) was > 100 µM (inactive) and the GI50 (SF-295) was > 100 µM (inactive). For the same molecule, the GI50 (PC-3) was > 100 µM (inactive), the GI50 (HOP-62) was > 100 µM (inactive) and the GI50 (SF-539) was > 100 µM (inactive). The GI50 (RXF 393) was 49.1 µM (inactive), the GI50 (MOLT-4) was 38.5 µM (inactive) and the GI50 (OVCAR-5) was > 10 µM (inactive). For the same molecule, the GI50 (A498) was > 100 µM (inactive), the GI50 (HCT-116) was > 100 µM (inactive) and the GI50 (SNB-75) was > 100 µM (inactive). For the same molecule, the GI50 (SW-620) was > 100 µM (inactive), the GI50 (NCI-H522) was 59.2 µM (inactive) and the GI50 (SR) was > 100 µM (inactive). For the same molecule, the GI50 (ACHN) was > 100 µM (inactive), the GI50 (MDA-N) was 87.9 µM (inactive) and the GI50 (MCF7) was 59.6 µM (inactive). The GI50 (HL-60) was 30.3 µM (inactive) and the GI50 (SK-OV-3) was 30.4 µM (inactive).

`O=C1NN(c2ccccc2)C(=O)C2C3c4ccccc4C(c4ccccc43)C12` (stereo not given) was tested, and the GI50 (M14) was > 100 µM (inactive), the GI50 (NCI-H460) was > 100 µM (inactive) and the GI50 (SF-295) was 80 µM (inactive). The GI50 (PC-3) was 24.3 µM (inactive), the GI50 (HOP-62) was 56.8 µM (inactive) and the GI50 (SF-539) was > 100 µM (inactive). For the same molecule, the GI50 (RXF 393) was 41.1 µM (inactive), the GI50 (MOLT-4) was 6.22 µM (inactive) and the GI50 (OVCAR-5) was > 10 µM (inactive). The GI50 (A498) was 32.2 µM (inactive), the GI50 (HCT-116) was 75 µM (inactive) and the GI50 (SNB-75) was 26.1 µM (inactive). The GI50 (SW-620) was > 100 µM (inactive), the GI50 (NCI-H522) was 49.1 µM (inactive) and the GI50 (SR) was > 100 µM (inactive). For the same molecule, the GI50 (ACHN) was > 100 µM (inactive), the GI50 (MDA-N) was > 100 µM (inactive) and the GI50 (MCF7) was 44.2 µM (inactive). The GI50 (HL-60) was > 10 µM (inactive) and the GI50 (SK-OV-3) was > 100 µM (inactive).

In the case of `O=C1C(=O)N(c2cccc(C(F)(F)F)c2)C(=O)C(=O)C1c1nc2ccccc2s1`, the GI50 (M14) is reported as 98.2 µM (inactive), the GI50 (NCI-H460) is reported as > 100 µM (inactive) and the GI50 (SF-295) is reported as 65.3 µM (inactive). The GI50 (PC-3) was > 100 µM (inactive), the GI50 (HOP-62) was 64.9 µM (inactive) and the GI50 (SF-539) was > 100 µM (inactive). The GI50 (RXF 393) was > 100 µM (inactive), the GI50 (MOLT-4) was 43.3 µM (inactive) and the GI50 (OVCAR-5) was > 100 µM (inactive). The GI50 (A498) was > 100 µM (inactive), the GI50 (HCT-116) was 43.8 µM (inactive) and the GI50 (SNB-75) was > 49.5 µM (inactive). The GI50 (SW-620) was 61.1 µM (inactive), the GI50 (NCI-H522) was > 100 µM (inactive) and the GI50 (SR) was 36.3 µM (inactive). The GI50 (ACHN) was > 65.2 µM (inactive), the GI50 (MDA-N) was > 100 µM (inactive) and the GI50 (MCF7) was 45.1 µM (inactive). The GI50 (HL-60) was 31.8 µM (inactive) and the GI50 (SK-OV-3) was > 100 µM (inactive).

In the case of `c1ccc2c(c1)nc1n2CCCn2ccnc2-1`, the GI50 (M14) is reported as > 100 µM (inactive), the GI50 (NCI-H460) is reported as > 100 µM (inactive) and the GI50 (SF-295) is reported as > 100 µM (inactive). The GI50 (PC-3) was > 100 µM (inactive), the GI50 (HOP-62) was > 100 µM (inactive) and the GI50 (SF-539) was 96.2 µM (inactive). The GI50 (RXF 393) was > 100 µM (inactive), the GI50 (MOLT-4) was > 100 µM (inactive) and the GI50 (OVCAR-5) was > 100 µM (inactive). For the same molecule, the GI50 (A498) was > 100 µM (inactive), the GI50 (HCT-116) was > 100 µM (inactive) and the GI50 (SNB-75) was > 100 µM (inactive). The GI50 (SW-620) was > 100 µM (inactive), the GI50 (NCI-H522) was > 100 µM (inactive) and the GI50 (SR) was > 100 µM (inactive). The GI50 (ACHN) was 73.6 µM (inactive), the GI50 (MDA-N) was > 100 µM (inactive) and the GI50 (MCF7) was > 100 µM (inactive). For the same molecule, the GI50 (HL-60) was 0.225 µM (active) and the GI50 (SK-OV-3) was 0.0137 µM (active).

In the case of `O=c1n(-c2ccc(Cl)c(Cl)c2)c(=O)n(-c2ccc(Cl)c(Cl)c2)c(=O)n1-c1ccc(Cl)c(Cl)c1`, the GI50 (M14) is reported as 3.2 µM (inactive), the GI50 (NCI-H460) is reported as 1.59 µM (inactive) and the GI50 (SF-295) is reported as 2.47 µM (inactive). The GI50 (PC-3) was 0.703 µM (active), the GI50 (HOP-62) was 3.67 µM (inactive) and the GI50 (SF-539) was 0.769 µM (active). The GI50 (RXF 393) was 3.21 µM (inactive), the GI50 (MOLT-4) was 1.87 µM (inactive) and the GI50 (OVCAR-5) was 3.63 µM (inactive). For the same molecule, the GI50 (A498) was 2.73 µM (inactive), the GI50 (HCT-116) was 1.2 µM (inactive) and the GI50 (SNB-75) was 2.53 µM (inactive). For the same molecule, the GI50 (SW-620) was 3.15 µM (inactive), the GI50 (NCI-H522) was 3.52 µM (inactive) and the GI50 (SR) was 3.55 µM (inactive). The GI50 (ACHN) was 2.39 µM (inactive), the GI50 (MDA-N) was 2.9 µM (inactive) and the GI50 (MCF7) was 1.82 µM (inactive). The GI50 (HL-60) was 2.89 µM (inactive) and the GI50 (SK-OV-3) was 2.11 µM (inactive).

In the case of `COc1cc(CSc2ccc(O)cc2)cc(O)c1O`, the GI50 (M14) is reported as 20.5 µM (inactive), the GI50 (NCI-H460) is reported as > 10 µM (inactive) and the GI50 (SF-295) is reported as 23.2 µM (inactive). For the same molecule, the GI50 (PC-3) was 49.3 µM (inactive), the GI50 (HOP-62) was 44.7 µM (inactive) and the GI50 (SF-539) was 29.9 µM (inactive). The GI50 (RXF 393) was 50.6 µM (inactive), the GI50 (MOLT-4) was 25.3 µM (inactive) and the GI50 (OVCAR-5) was 23.4 µM (inactive). For the same molecule, the GI50 (A498) was > 100 µM (inactive), the GI50 (HCT-116) was 22.1 µM (inactive) and the GI50 (SNB-75) was 32.1 µM (inactive). For the same molecule, the GI50 (SW-620) was 38.5 µM (inactive), the GI50 (NCI-H522) was 16.1 µM (inactive) and the GI50 (SR) was 21.7 µM (inactive). The GI50 (ACHN) was 28.1 µM (inactive), the GI50 (MDA-N) was 26.7 µM (inactive) and the GI50 (MCF7) was 17.6 µM (inactive). For the same molecule, the GI50 (HL-60) was 19.6 µM (inactive) and the GI50 (SK-OV-3) was > 10 µM (inactive).

Reference: ChEMBL document CHEMBL1201862, “PubChem BioAssay data set” (2004)
